The text below walks through data of US20090076067A1, “PHARMACEUTICAL COMPOSITION COMPRISING AZARHODACYANINE COMPOUND AS ACTIVE INGREDIENT” (priority 2005, published 2009).

For series [1], the system named is Trypanosoma brucei rhodensiense (STIB 900 strain). Kind of series: African trypanosoma protozoa proliferation inhibition screening test. The class given is cell-based. Particulars: for Selective toxicity: EC50 rat L6 cells / EC50 African trypanosoma protozoa; for EC50: Trypanosoma brucei, read-out: EC50 Trypanosoma brucei rhod. Here is the method:
In this experiment, bloodstream form trypomastigote of Trypanosoma brucei rhodensiense (STIB 900 strain) was used. The medium used in the experiment was prepared as follows: to filter-sterilized MEM medium, 25 mM N-2-hydroxyethylpiperazine-2-ethane sulfonate (HEPES), 1 g/L glucose, 1% MEM nonessential amino acid, 0.2 mM 2-mercaptoethanol, 2 mM pyruvic calcium salt, 0.1 mM hypoxanthine, and 15% heat-treated horse serum were added. The protozoa was cultured under atmosphere of CO2 concentration 5% and temperature 37° C.
Either the compound of the invention or a positive control (melarsoprol) was dissolved into dimethylsulfoxide (DMSO) to prepare test solution having predefined concentration. To each well in a 96-well culture plate, medium containing 8×10^3 protozoa, and either test solution containing the test compound at predefined concentration or DMSO without compound was added. Then medium was added to achieve 100 μL. The test solution was duplicated.
The culture plate was cultured in an incubator for 72 hours, and the proliferation inhibition activity was examined. The activity was determined as follows. To each well, 10 μL Alamar blue water solution was added, then the plate was again cultured for 2 hours. Then the culture plate was mounted on a fluorescence microplate reader (Spectramax Gemeni XS; Molecular Devices Corporation, U.S.), and irradiated with 536 nm excitation wavelength to determine fluorescence at 588 nm. The trypanosoma infection rate of the sample containing the test composition and that of the control sample was calculated.
(§1) Using the protozoa infection rate thus obtained, the proliferation inhibition rate was calculated according to the following equation to determine 50% proliferation inhibition concentration (EC50).
(§2) Proliferation inhibition rate(%)={1−(b−a)/(c−a)}×100
(§3) a: initial infection rate b: infection rate of the test compound solution c: infection rate of the control

Series [2] concerns Leishmania donovani (MHOM/ET/67/L82 strain). Kind of series: Leishmania protozoa proliferation inhibition screening test. It counts as cell-based. Here is the method:
In this experiment, Leishmania donovani (MHOM/ET/67/L82 strain) was used. The protozoa were successively cultured in Syrian Golden hamsters to obtain amastigote. The medium used in the experiment was SM medium having heat-treated fetal bovine serum 10% added, and pH prepared to 5.4. The culture was conducted under CO2 concentration 5% and temperature 37° C.
Either the compound of the invention or a positive control (miltefosine) was dissolved into DMSO to prepare test solution having predefined concentration. To each well of a 96-well culture plate, medium containing predetermined number of protozoa was added and the culture was pre-treated. The concentration of amastigote was determined by CASY cell analyze system (Scharfe GMBH Co., Germany). Subsequently, either test solution containing compound of the invention in predefined concentration or DMSO without compound was added. The test solution was duplicated.
The plate was cultured in an incubator for 72 hours, and the proliferation inhibition activity was examined. The activity was determined as follows. To each well, 10 μL Alamar blue aqueous solution was added, then cultured again for 2 hours. Then the culture plate was mounted on a fluorescence microplate reader (Spectramax Gemeni XS; Molecular Devices Corporation, U.S), and irradiated 536 nm excitation wavelength to determine […] at 588 nm. The leishmania infection rate of the sample containing the test compound and that of the control sample was calculated.
as §1, §2
(§4) a: initial infection rate b: infection rate of test compound solution c: infection rate of the control

The subject of series [3] is Trypanosoma cruzi (Tulahuen C2C4 strain). The series can be described thus: American trypanosoma protozoa proliferation inhibition screening test. It counts as cell-based. Particulars: for Selective toxicity: EC50 rat L6 cells / EC50 American trypanosoma protozoa; for EC50: Trypanosoma cruzi, Tulahuen C2C4 strain in rat L6 cells, 96 hours, CPRG/Nonidet, read-out: EC50 Trypanosoma cruzi. The method, then:
In this experiment, amastigote and trypomastigote of Trypanosoma cruzi (Tulahuen C2C4 strain) infected to rat L6 cells were used. The medium used in the experiment was prepared as follows: to RPMI 1640 medium containing L6 cells, L-glutamine (200 mM) and fetal bovine serum was added to achieve concentration of 1% and 10%, respectively. The culture was conducted under CO2 concentration 5% and temperature 37° C.
Either the compound of the invention or a positive control (benznidazole) was dissolved into DMSO to prepare test solution having predefined concentration. To each well in a 96-well culture plate, medium containing 5×10^3 protozoa was added and precultured for 48 hours. After replacing the medium, either the test solution containing compound of the invention in predefined concentration or DMSO without compound was added. The test solution was duplicated.
The plate was cultured in an incubator for 96 hours, and the proliferation inhibition activity was examined. The activity was determined as follows. To each well, 50 μL CPRG/Nonidet was added, then left for 2 to 6 hours. Then the culture plate was mounted on an absorption microplate reader to determine absorption at 540 nm. The trypanosoma infection rate of the sample containing the test compound and that of the control sample was calculated.
as §1, §2, §3

Series [4] can be described thus: Rat L6 cell proliferation inhibition test. It counts as cell-based. Particulars: read-out: EC50 cytotoxicity L6. Here is the method: Rat-derived L6 cells (rat skeletal myoblast cell) were used for this test. […] The sample was cultured under CO2 concentration 5% and temperature 37° C. Either the composition of the invention or control was dissolved into DMSO, to prepare test solutions having predefined concentration.
The samples were precultured until logarithmic growth phase was reached. Then the culture was transferred to each well in a 96-well culture plate, and either test solution containing test compound at predefined concentration or DSMO without compound was added. The test solution was duplicated.
The plate was cultured in an incubator for 72 hours, to examine proliferation inhibition activity. The activity was examined as follows. Alamar Blue water solution 10 μL was added to each well, and culture was continued for 2 hours. Next, the culture plate was mounted on a fluorescence microplate reader (Spectramax Gemeni XS; Molecular Devices Corporation, U.S.), and irradiated with excitation wavelength 536 nm to determine fluorescence at 588 nm. The survival rate of L6 cells in the test solution sample and control sample was calculated.
Proliferation inhibition rate(%)={(C−A)/(B−A)}×100
A: Initial cell count B: Cell count in control after 3 days C: Cell count in test solution after 3 days

For series [5], the system named is Plasmodium Falciparum k1 strain. Kind of series: Chloroquine-resistant tropical malaria protozoa proliferation inhibition screening test. The class given is cell-based. Conditions: for Selective toxicity: EC50 rat L6 cells / EC50 Chloroquine-resistant malaria protozoa; for EC50: Plasmodium falciparum, chloroquine-resistant K1 strain, 3H-hypoxanthine uptake, read-out: EC50 P. falciparum K1. The method, then:
In this experiment, Plasmodium Falciparum k1 strain protozoa were used. The medium used in the experiment was filter-sterilized RPMI-1640 medium. To the medium human serum was added to achieve 5% concentration. The protozoa was cultured under condition of O2 concentration 3%, CO2 concentration 4%, N2 concentration 93%, and temperature 37° C.
The cultured malaria infected red blood cells were collected by centrifugation, diluted with non-infected red blood cells, to achieve initial infection rate 0.15%. The hematocrit was 2.5%.
To each well in a 96-well culture plate, 200 μL malaria infected culture was added, and either test solution containing test compound at predefined concentration or DMSO having no test compound was added. Each test solution was prepared in duplicate. After 48 hours culture under 37° C., hypoxanthine labeled with radioactive tritium (^3H) of 0.5 μCi was added to each well. After culturing under same condition for 24 hours, the product was collected on a glass fiber filter and washed. The intensity of radiation was measured by Beta plate liquid scintillation counter (Wallac Inc.), to determine malaria protozoa infection rate in test compound samples and control samples.
Using the malaria protozoa infection rate, the proliferation inhibition rate was calculated according to the following equation to determine 50% proliferation inhibition concentration (EC50).
as §2, §4

Series [6] concerns Plasmodium berghei NK 65 strain. Kind of series: animal or person. The class given is in vivo. The source says: For a test to evaluate therapeutic effect of the compound, 4-day suppressive test which is commonly used for in vivo test to evaluate activity of anti-malaria compound was used. In this experiment, rodent malaria protozoa (Plasmodium berghei NK 65 strain) were used. The infected blood was collected from 5-weeks age (SPF) ICR strain male mouse which were infected intraperitoneally and successively cultured. From the caudal vein of the infected mouse, blood was collected to calculate infection rate. After confirming that infection rate was adequately elevated (10% to 20% infection), the malaria infected blood was collected from the heart of the mouse. The infection rate and count of the red blood cells (cells/mL) were calculated. The infected red blood cell was diluted with PBS buffer to achieve […] protozoa per 0.2 mL dose. The infected cells were injected to the caudal vein of uninfected mouse (ICR strain, male, 5-weeks age) to cause infection. Five mice were made into one group, and the test compound was administered in predefined concentration. From 2 hours after infection, the compound was administered every 24 hours for straight 4 days.
The compound of the invention to be used in this test was dissolved in saline (Otsuka Pharmaceutical Co., Ltd.) to obtain test solution of predefined concentration. When the compound was not dissolved in saline, it was dissolved in SSV (saline containing 0.5% sodium=carboxymethyl cellulose, 0.5% benzyl alcohol, 0.4% Tween 80) to prepare test solution. For the control group (non-treatment group), only saline (Otsuka) was administered. Positive controls S-1 to S-5 were dissolved in saline (Otsuka) or SSV in predetermined concentration to prepare test solution. When the compound was not dissolved in saline, it was dissolved in SSV. After measuring weight of each mouse, the dose for each mouse was calculated to achieve 5.0 to 40 mg concentration for weight1 kg.
Five mice were made into one group, and the test compound was administered intraperitoneally at predefined concentration. From 2 hours after infection, the compound was administered every 24 hours for straight 4 days. Subsequent to the 24 hours after last treatment, blood was collected from the tail of the mouse to prepare thin layer smear in order to count malaria protozoa infection in the treatment group and the control group under microscope. The mice showing maximum value and minimum value were excluded from the average calculation (average was calculated for three mice), to determine malaria protozoa infection rate (Parasitemia).
Using malaria protozoa infection rate thus calculated, recovery rate obtained from the test compound (suppression) was determined.
Recovery rate: suppression(%)=(b−a)/b×100 a: Protozoa infection rate in the treatment group b: Protozoa infection rate in the control group Mean survival days: MSD(day)=c−d c: Average days from the initial treatment (date of malaria infection) to the date of death for the treatment group (5 mice) d: Average days from the date of malaria infection to the date of death for the non-treatment (control) group (5 mice) […]
Tables 5 to 7 illustrate the recovery rate (%) and survival days (day) of malaria infected mice treated with intraperitoneal injection of the test compound and the control compound at predefined concentration. The meaning of symbols in the table is as follows.

[7] abbreviates: STIB900, STIB 900 bloodstream form, 72 hours, Alamar blue.
The mark [8] stands for this setting: L6 cells (rat skeletal myoblasts), Table 1, Alamar Blue.

Where two headings read alike, the source gives them in different places.

In general, EC50 refers to the concentration needed to bring the measured effect to its halfway point. Turning to `CCN1C(=O)/C(=c2\nc3c(s2)=CC=CN3C)S/C1=N\c1sc2ccccc2[n+]1C.[Cl-]` [Compound A-21], the Selective toxicity came out at 207 in series [1], 18 in series [2] (EC50 rat L6 cells / EC50 leishmania protozoa), 41 in series [3] and 3005 in series [5]. Also, the concentration giving a half-maximal response (EC50) came to 0.029 µg/mL in series [1] (setting [7]); 0.343 µg/mL in series [2] (Leishmania donovani, amastigote, 72 hours, Alamar blue, read-out: EC50 Leishmania donovani); 0.145 µg/mL in series [3]; 0.002 µg/mL in series [5]. In series [4] (setting [8]), the EC50 at 72 h worked out at 6.01 µg/mL.
`Nc1nc(N)nc(Nc2ccc([As]3SCC(CO)S3)cc2)n1` (centres unmarked) [Melarsoprol, reference compound] registered a Selective toxicity in series [1] of 1300. For the same compound, the half-maximal effective concentration (EC50) in series [1] (STIB900, 72 h) was determined as 0.0024 µg/mL. The EC50 at 72 h in series [4] (Table 2, rat L6 cells, Alamar Blue) was 3.1 µg/mL.
As to `CCN1C(=O)/C(=c2\nc3c(s2)=CC=CN3C)S/C1=N\c1scc[n+]1C.[Cl-]` [Compound A-20], the Selective toxicity amounted to 256 in series [1], 32 in series [3] and 2211 in series [5]. Also, the results for the EC50 in series [1] (setting [7]), in series [3] and in series [5] were 0.095 µg/mL, 0.763 µg/mL and 0.011 µg/mL, respectively. In addition, the EC50 at 72 h in series [4] (setting [8]) is 24.3 µg/mL.
For `CCn1c(=O)/c(=C2\C=CC=CN2C)s/c1=C1\S/C(=N\c2sc3cc(Cl)ccc3[n+]2C)N(C(C)C)C1=O` [Compound B-36], the Selective toxicity came out at 85 in series [1] and 1165 in series [5]. The EC50 amounted to 0.123 µg/mL in series [1] (setting [7]) and 0.009 µg/mL in series [5]. Besides, the inhibition in vivo at 25 mg/kg/day in series [6] (Plasmodium berghei, ip, 96 h, read-out: Recovery Rate (suppression)) came out at 95.5%. Moreover, in series [6] (dose 25 mg/kg/d intraperitoneally, 4 days), the “Survival days (mean survival days, treatment group minus control group)” value was determined as 1.7 days. In addition, in series [4] (setting [8]), the EC50 at 72 h was 10.5 µg/mL.
